In article PMC3409115, “Diverse Inhibitor Chemotypes Targeting Trypanosoma cruzi CYP51” (PLoS Neglected Tropical Diseases, 2012):
Where two headings read alike, the source gives them in different places.

Experiments:
T. cruzi CYP51 [1] = molecular target: T1, T. cruzi CYP51 (Trypanosoma cruzi, UniProt Q7Z1V1); test: Low throughput UV-vis binding assay; details: read-out: KD
T1 construct: had the first 21 residues upstream of K22 replaced with the fragment MAKKKKK; His6 (C); made in house
Description: Hit validation in the low throughput UV-vis binding assay was performed according to a previously published but somewhat modified protocol. UV-vis absorption spectra were recorded on a Cary scanning spectrophotometer (Varian) in the 1-cm path length quartz cuvette at 23°C in 100 mM potassium phosphate buffer, pH 7.5, containing 10% glycerol, with CYP51 concentration of 0.5 µM. Compound solutions used for titration were prepared in DMSO at 100 µM and added in 2-µl aliquots to each 3 ml sample using a P2 pipetman (Gilson). Binding affinity of hits was estimated using the quadratic tight-binding equation [27]: […]
where Aobs is the absorption shift determined at any ligand concentration; Amax is the maximal absorption shift obtained at saturation; KD is dissociation constant for the inhibitor-enzyme complex; S is the ligand concentration; Et is the total enzyme concentration.

[2] = tested on: T. cruzi-infected skeletal myoblasts (intracellular amastigotes); test: Hit cross-validation in T. cruzi-infected mammalian cells (image-based assay); assay type: cell-based, Trypanosoma cruzi
Description: Bovine embryo skeletal muscle cells or mouse C2C12 myoblasts (ATCC#CRL-1772) used in the cross-validation assay, were cultivated respectively in RPMI 1640 medium supplemented with 5% horse serum and Dulbecco's Modified Eagle's Medium H-21 containing 4.5 g/l glucose (DMEM H-21) (Cell Culture Facility, UCSF), supplemented with 5% fetal bovine serum (FBS) (Sigma Chemical Co., St. Louis, MO, USA), 25 mM HEPES, 2 mM L-glutamine, 100 U/ml penicillin, 100 µg/ml streptomycin. T. cruzi CAI-72 trypomastigotes were obtained from supernatant of infected cultures 4 to 7 days post-infection. Cultures were maintained at 37°C in an atmosphere of 5% CO2. To harvest parasites, the supernatant of infected cultures containing released trypomastigotes was collected and centrifuged at 600 rpm for 5 min to remove cell debris; the pellet was then discarded and the trypomastigotes remaining in the media were concentrated by spinning the culture tubes at 3300 rpm for 15 minutes. The parasite pellet was re-suspended in 2–5 ml of fresh media. Trypomastigote concentration was determined using a Neubauer hemocytometer.
(§1) Compound cross-validation in T. cruzi infected skeletal myoblasts (bovine embryo skeletal muscle or C2C12 lineage) was performed according to the protocol adapted from Engel and co-authors. Compounds stored as 10 mM stocks in DMSO were freshly diluted immediately prior to use. […] To prepare plates for the assay, skeletal myoblasts cultured in […] flasks were washed once with phosphate buffered saline (PBS) and then incubated with 0.25% trypsin in PBS for 1–3 minutes for detachment. The trypsin solution was removed and myoblasts were released from the flask bottom. Fresh medium was added and cell concentration was determined using a Neubauer hemocytometer. Myoblasts in 50 µl of culture medium were transferred to the clear-bottom wells of black 96-well plates (Greiner Bio-One, #655090) at a density of 1500 cells/well and infected with 50 µl trypomastigote culture at 7500 parasites/well (1∶5 ratio). The cells were allowed to adhere and spread for 24 h in the incubator before the media was removed and 100 µl of fresh medium containing 0, 0.04, 0.12, 0.37, 1.10, 3.30 or 10 µM of test compound was added to each well, followed by 72 h incubation at 37°C in an atmosphere of 5% CO2. Posaconazole was used as a positive control at the same concentrations as the test compounds. The cells were then fixed by adding 100 µl/well of 8% formaldehyde in PBS, resulting in a 4% working concentration of formaldehyde. To stain the nucleus of the host cell and the nucleus and kinetoplast of parasites, cell membranes were first permeabilized by washing once with 100 µl of 0.1% Triton X-100 in PBS, then treated for 1 h with 0.2 µg/ml of the fluorescent DNA dye, 4,6-diamidino-2-phenylindole (DAPI), followed by one wash with PBS. The fixed plates were kept at 4°C and protected from light until images were acquired.
(§2) Plates were allowed to equilibrate to room temperature and images were acquired by the IN Cell Analyzer 2000 (GE Healthcare) with a 20× objective, 5 fields per well, with 350/50 nm and 460/40 nm fluorescent excitation and emission filters. In the absence of drug cytotoxicity, at least 800 cells were imaged and counted per well. The images were processed and analyzed by IN Cell Analyzer Developer 1.6 software. The size parameters used to segment host and parasite organelles were 125 µm^2 for host nucleus, and 1–2 µm^2 for parasite nucleus/kinetoplast. Since DAPI also strongly stains host heterochromatin regions that display as shapes resembling parasites ( Figure 3 ), particles co-localized to host nuclei were excluded from quantification, while parasite aggregates near the host nucleus were counted as infected cells.

[3] = tested on: host cell (skeletal myoblasts, bovine embryo skeletal muscle or C2C12); test: Host cell toxicity in the cross-validation assay; assay type: cell-based; details: host cells in cross-validation assay, up to 10 µM
Description: as §1
as §2, with “cells. Numbers of host cells and intracellular amastigotes were determined based on host cell and parasite nucleus and parasite kinetoplast quantification, providing a measure of growth inhibition during the first 72 h of post-infection treatment compared to untreated controls.” for “cells.”
^aToxicity was assessed as the highest percentage of host cell growth inhibition caused by compound treatment. Scores are assigned as 1-<20%; 2-21-30%; 3- 31-40%; 4-41-50% and 5->50% growth inhibition.

T. cruzi CYP51 [4] = molecular target: T1, T. cruzi CYP51; test: HTS spectral-mode binding screen, type II difference spectra scored 0-5
[5] = UV-vis titration, 0.5 µM CYP51, quadratic tight-binding equation, lower limit of method ~5 nM
[6] = Trypanosoma cruzi, Myoblast, 72 h, T. cruzi-infected myoblasts, 72 h treatment, repurchased compound, read-out: EC50 averaged from two independent cross-validation assays for individually repurchased hits
[7] = T. cruzi-infected myoblasts, 72 h treatment, read-out: EC50 against T. cruzi parasites in HTS assay used to rank order the hits
[8] = Trypanosoma cruzi, Myoblast, 72 h, T. cruzi-infected myoblasts, 72 h treatment, read-out: EC50 against T. cruzi parasites in HTS assay used to rank order the hits
[9] = spectral mode, four serial dilutions 2 µM to 12.5 µM, 2 µM CYP51
[10] = Trypanosoma cruzi, Myoblast, 72 h, read-out: EC50 against T. cruzi parasites in HTS assay used to rank order the hits
[11] = type II difference spectra scored 0-5, second highest rated hit compound cluster

T1 sequence (Q7Z1V1 15-481, looked up, natural form): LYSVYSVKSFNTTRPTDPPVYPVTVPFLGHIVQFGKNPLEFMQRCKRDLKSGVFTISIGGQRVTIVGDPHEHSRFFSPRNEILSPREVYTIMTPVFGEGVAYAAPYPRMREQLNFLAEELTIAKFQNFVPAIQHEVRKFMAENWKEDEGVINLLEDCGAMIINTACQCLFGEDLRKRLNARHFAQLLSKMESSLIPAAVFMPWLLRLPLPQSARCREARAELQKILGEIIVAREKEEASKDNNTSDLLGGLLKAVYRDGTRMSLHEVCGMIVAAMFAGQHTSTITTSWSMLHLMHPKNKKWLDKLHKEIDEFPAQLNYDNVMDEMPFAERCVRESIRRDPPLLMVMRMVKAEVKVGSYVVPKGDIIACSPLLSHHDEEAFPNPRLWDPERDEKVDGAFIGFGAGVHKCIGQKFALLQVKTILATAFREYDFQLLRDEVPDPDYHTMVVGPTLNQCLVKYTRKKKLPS

Compound	EC50 [2, 8]	Toxicity score (highest percentage of host cell growth inhibition) [3]	HTS binding score (T. cruzi CYP51 [4]; [9])	EC50 [2, 10]	other results
Brc1ccccc1OCCCCn1ccnc1 [Compound 1b]	–	–	–	–	Kd (T. cruzi CYP51 [1]; [5]): 66 ± 29 nM; EC50 [2, 6]: 4580 ± 2000 nM
COc1ccc(S(=O)(=O)NC(C)c2ccc(-n3ccnc3)cc2)c2ccccc12 (stereo not shown) [Compound 3]	480 nM	2 (2-21-30%)	–	–	Kd (T. cruzi CYP51 [1]; [5]): ≤ 5 nM; EC50 [2, 7]: 484 nM; EC50 [2, 6]: 200 nM
Brc1ccc(OCCCCCCn2ccnc2)cc1 [Compound 1a]	–	–	–	–	Kd (T. cruzi CYP51 [1]; [5]): ≤ 5 nM; EC50 [2, 6]: 930 ± 100 nM
Cc1ccc(OCC(=O)ONC(=N)c2cccnc2)c(Br)c1 [Compound 54]	–	1 (1-<20%)	3	9480 nM	–
N#CC1=C(N)OC2=C(C(=O)CC(c3ccccc3)C2)C1c1cccnc1 (stereo not shown) [Compound 7]	670 nM	4 (4-41-50%)	3	–	HTS binding score (T. cruzi CYP51 [4]; [11]): 3; EC50 [2, 7]: 667 nM
CCc1ccc(-c2cc3c(=O)n(CC(=O)NCc4cccnc4)nc(C)n3n2)cc1 [Compound 42]	–	3 (3- 31-40%)	2	7750 nM	–
COC(=O)c1ccc(-c2ccncc2)s1 [Compound 21]	–	2 (2-21-30%)	4	2740 nM	–
c1ccc(CC(NCc2ccncc2)c2ccccc2)cc1 (stereo not shown) [Compound 27]	–	1 (1-<20%)	5	4820 nM	–
Cn1c(SCc2nc(-c3ccc(Cl)cc3)no2)nnc1-c1ccncc1 [Compound 40]	–	1 (1-<20%)	5	7670 nM	–
COC(=O)C1=C(N)Oc2cc(C)n(CCc3ccc(OC)c(OC)c3)c(=O)c2C1c1cccnc1 (stereo not shown) [Compound 6, methyl 2-amino-6-[2-(3,4-dimethoxyphenyl)ethyl]-7-methyl-5-oxo-4-pyridin-3-yl-5,6-dihydro-4H-pyrano[3,2-c]pyridine-3-carboxylate]	610 nM	1 (1-<20%)	3	–	HTS binding score (T. cruzi CYP51 [4]; [11]): 3; Kd (T. cruzi CYP51 [1]; [5]): 76 nM; EC50 [2, 7]: 614 nM; EC50 ([2]; Trypanosoma cruzi, Myoblast, in Mus musculus, T. cruzi amastigotes cultured in mouse myoblasts, averaged from two independent assays, read-out: EC50 in low throughput validation (repurchased hit)): 80 nM
CC1(C)CC(=O)C2=C(C1)c1c(ccc3ccccc13)NC2c1cccnc1 (stereo not shown) [Compound 19]	2500 nM	3 (3- 31-40%)	5	–	HTS binding score (T. cruzi CYP51 [4]; [11]): 5; Kd (T. cruzi CYP51 [1]; T. cruzi CYP51): ≤ 5 nM
Clc1ccc(OCCCCCCn2ccnc2)cc1 [Compound 11]	950 nM	2 (2-21-30%)	–	–	Kd (T. cruzi CYP51 [1]; [5]): 65 ± 15 nM; EC50 [2, 7]: 948 nM; EC50 [2, 6]: 760 nM
Brc1ccc(-c2csc(-c3ccncc3)n2)cc1 [Compound 18]	–	1 (1-<20%)	3	2380 nM	–
O=C(c1ccc(Cl)cc1Cl)C(c1cccnc1)C(O)C(Cl)(Cl)Cl (stereo not shown) [Compound 34]	–	2 (2-21-30%)	5	6870 nM	–
CN(C)C(C/N=C(\S)NCCc1ccccc1)c1cccnc1 (stereo not shown) [Compound 46]	–	1 (1-<20%)	1	8180 nM	–
COc1ccc(CNc2nc3ccccc3c3nc(-c4ccncc4)nn23)cc1 [Compound 15]	–	3 (3- 31-40%)	5	1930 nM	EC50 ([2]; Trypanosoma cruzi, Myoblast, 72 h, read-out: EC50 averaged from two independent cross-validation assays for individually repurchased hits): 1930 nM
OC(c1ccccc1)(c1ccccc1)c1c[nH]cn1 [Compound 47]	–	2 (2-21-30%)	3	8220 nM	–
CC1=C(C(=O)OC2CCCC2)C(c2ccncc2)C2=C(O)CC(C)(C)CC2=N1 (stereo not shown) [Compound 2]	310 nM	4 (4-41-50%)	–	–	HTS binding score (T. cruzi CYP51 [4]; [11]): 4; EC50 [2, 7]: 306 nM
c1ccc2c(c1)-c1ccccc1C2n1ccnc1 [Compound 36]	–	3 (3- 31-40%)	1	7240 nM	–
Cc1cccc(Nc2nc(-c3ccncc3)cs2)n1 [Compound 9]	910 nM	1 (1-<20%)	4	–	Kd (T. cruzi CYP51 [1]; [5]): ≤ 5 nM; EC50 [2, 7]: 914 nM; EC50 [2, 6]: 580 nM
Cc1ccc(CNC(=O)C(=O)NCC(c2cccnc2)N2CCN(Cc3ccccc3)CC2)cc1 (stereo not shown) [Compound 14]	–	4 (4-41-50%)	2	1670 nM	–
CCOC(=O)C1=C(N)Oc2ccc3ccccc3c2C1c1cccnc1 (stereo not shown) [Compound 51]	8580 nM	1 (1-<20%)	2	–	HTS binding score (T. cruzi CYP51 [4]; [11]): 2
